Values of other authors in PMC13584777, “Synthesis, Conformational Analysis, and Evaluation of 6R- and 6S‑Methylmannoimidazoles as Mannosidase Inhibitors” (ACS Omega, 2026).

Target: T1, BtMan2A (Bacteroides thetaiotaomicron, UniProt Q8AAK6)
T1 construct: purchased NZYTech CZ0810
Conditions: Figure 3, authors' earlier study of the 1-deoxymannojirimycin series

T1 sequence (Q8AAK6 entry or part of it, change not shown): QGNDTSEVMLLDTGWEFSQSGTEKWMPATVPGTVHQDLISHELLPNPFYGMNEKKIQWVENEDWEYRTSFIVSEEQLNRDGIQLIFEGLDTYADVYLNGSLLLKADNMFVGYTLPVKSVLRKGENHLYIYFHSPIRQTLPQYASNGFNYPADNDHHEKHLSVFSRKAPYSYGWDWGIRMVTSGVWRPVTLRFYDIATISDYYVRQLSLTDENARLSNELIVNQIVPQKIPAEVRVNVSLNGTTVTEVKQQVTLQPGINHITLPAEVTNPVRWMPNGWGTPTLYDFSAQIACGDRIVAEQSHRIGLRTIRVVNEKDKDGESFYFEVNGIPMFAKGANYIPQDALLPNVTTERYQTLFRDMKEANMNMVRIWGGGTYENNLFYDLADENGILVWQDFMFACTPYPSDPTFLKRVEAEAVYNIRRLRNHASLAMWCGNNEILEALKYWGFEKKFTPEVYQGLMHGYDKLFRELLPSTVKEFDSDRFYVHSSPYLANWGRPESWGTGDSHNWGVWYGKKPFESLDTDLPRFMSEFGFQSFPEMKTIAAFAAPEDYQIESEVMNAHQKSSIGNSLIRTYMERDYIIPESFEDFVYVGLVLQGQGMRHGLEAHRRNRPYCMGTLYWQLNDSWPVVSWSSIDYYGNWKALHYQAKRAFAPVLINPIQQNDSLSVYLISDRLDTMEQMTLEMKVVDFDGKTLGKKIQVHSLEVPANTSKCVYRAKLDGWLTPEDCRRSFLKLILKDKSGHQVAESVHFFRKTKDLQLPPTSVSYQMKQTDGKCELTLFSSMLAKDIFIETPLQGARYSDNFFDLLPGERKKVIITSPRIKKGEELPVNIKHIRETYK

| Compound | Ki |
| --- | --- |
| C[C@H](O)[C@H]1NC[C@@H](O)[C@@H](O)[C@@H]1O [compound 2, 6S-methyl-1-deoxymannojirimycin] | 1.4 ± 0.2 mM |
| C[C@@H](O)[C@H]1NC[C@@H](O)[C@@H](O)[C@@H]1O [compound 1, 6R-methyl-1-deoxymannojirimycin] | 14 ± 1 mM |
